Measured values from publication PMC6272564, “Synthesis and Biological Evaluation of Novel 6-Hydroxy-benzo[d][1,3]oxathiol-2-one Schiff Bases as Potential Anticancer Agents” (Molecules, 2015).

Columns and labels:
ACP-03 = test: MTT cytotoxicity assay, ACP-03 gastric cancer cells; type: cell-based, human; conditions: IC50 with 95% confidence interval, triplicate, 72 h incubation
Protocol: (§1) In vitro anticancer activity of compounds 2, 3 and 4a–r was evaluated against three human cancer cell lines in comparison to doxorubicin by using MTT assay.
(§2) Compounds (0.312–20 μM) were tested for cytotoxic activity against three cancer cell lines: ACP-03 (gastric), SKMEL-19 (melanoma) and HCT-116 (colon). All cell lines were maintained in DMEM medium supplemented with 10% fetal bovine serum, 2 mM glutamine, 100 U/mL penicillin, and […] streptomycin at 37 °C with 5% CO2. Each compound was dissolved in DMSO and diluted with water to obtain a concentration of 20 μM. They were incubated with the cells for 72 h. The negative control received the same amount of DMSO (0.005% in the highest concentration). Doxorrubicin was used as a positive control. The cell viability was determined by reduction of the yellow dye 3-(4,5-dimethyl-2-thiazol)-2,5-diphenyl-2H-tetrazolium bromide (MTT) to a blue formazan product after 48 h as described by Mosmann.

HCT-116 = test: MTT cytotoxicity assay, HCT-116 colon cancer cells; type: cell-based; conditions: Homo sapiens, IC50 with 95% confidence interval, triplicate, 72 h incubation
Protocol: as §1, §2

[1] = Cell membrane disruption (hemolysis) of mouse erythrocytes; type: cell-based; conditions: mouse erythrocytes (2% suspension), 2% mouse erythrocyte suspension, room temperature, tested 1.5 to 200 μg/mL, lysis 50% of Triton X-100
Protocol: The mechanical stability of red blood cells is a good parameter for in vitro screening of unspecific cytotoxicity, since the membrane of erythrocyte can suffer significant changes in its structural properties. In order to verify whether the cytotoxicity of the compounds was linked to the membrane disruption, the ability to induce lysis of mouse erythrocytes was investigated, and no membrane damage was found for all tested compounds (EC50 > 200 μg/mL).
The test was performed in 96-well plates using a 2% mouse erythrocyte suspension in 0.85% NaCl containing 10 mM CaCl2. The compounds diluted as mentioned above were tested at concentrations ranging from 1.5 to 200 μg/mL. After incubation at room temperature for 30 min and centrifugation, the supernatant was removed and the liberated hemoglobin was measured spectrophotometrically at 540 nm. DMSO was used as a negative control and Triton X-100 (1%) was used as positive control. EC50 is the calculated effective dose that induced lysis on 50% that of the Triton X-100 [37].

SKMEL-19 = test: MTT cytotoxicity assay, SKMEL-19 melanoma cells; type: cell-based, human; conditions: IC50 with 95% confidence interval, triplicate, 72 h incubation
Protocol: as §1, §2

Structure (SMILES) | melting point | IC50 (ACP-03; Homo sapiens, 72 h) [µM] | IC50 (HCT-116) [µM] | EC50 at 30 min [1] [µg/mL] | IC50 (SKMEL-19; Homo sapiens, SK-MEL19, 72 h) [µM] | IC50 (ACP-03) [µM] | IC50 (SKMEL-19) [µM]
O=c1oc2cc(O)c([N+](=O)[O-])cc2s1 [Compound 2, 6-Hydroxy-5-nitrobenzo[d][1,3]oxathiol-2-one] | 180 to 182 °C | > 10 | > 10 | > 200 | > 10 | – | –
Nc1cc2sc(=O)oc2cc1O [Compound 3, 5-Amino-6-hydroxybenzo[d][1,3]oxathiol-2-one] | 194 to 195 °C | > 10 | > 10 | > 200 | > 10 | – | –
O=c1oc2cc(O)c(/N=C/c3ccc([N+](=O)[O-])cc3)cc2s1 [Compound 4b, (E)-6-Hydroxy-5-(4-nitrobenzylideneamino)benzo[d][1,3]oxathiol-2-one] | 223 to 224 °C | < 5 | > 10 | > 200 | > 10 | 4.8 | –
O=c1oc2cc(O)c(/N=C/c3ccc(Cl)cc3Cl)cc2s1 [Compound 4g, (E)-5-(2,4-Dichlorobenzylideneamino)-6-hydroxybenzo[d][1,3]oxathiol-2-one] | 221 to 223 °C | > 10 | > 10 | > 200 | > 10 | – | –
CN(C)c1ccc(/C=N/c2cc3sc(=O)oc3cc2O)cc1 [Compound 4i, (E)-5-(4-(Dimethylamino)benzylideneamino)-6-hydroxybenzo[d][1,3]oxathiol-2-one] | 199 to 201 °C | > 10 | > 10 | > 200 | > 10 | – | –
O=c1oc2cc(O)c(/N=C/c3cccc(O)c3O)cc2s1 [Compound 4l, (E)-5-(2,3-Dihydroxybenzylideneamino)-6-hydroxybenzo[d][1,3]oxathiol-2-one] | 244 to 246 °C | > 10 | > 10 | > 200 | > 10 | – | –
O=c1oc2cc(O)c(/N=C/c3ccc(O)cc3O)cc2s1 [Compound 4m, (E)-5-(2,4-Dihydroxybenzylideneamino)-6-hydroxybenzo[d][1,3]oxathiol-2-one] | 284 to 285 °C (dec.) | > 10 | > 10 | > 200 | 9.4 | – | –
O=c1oc2cc(O)c(/N=C/c3cc(O)ccc3O)cc2s1 [Compound 4n, (E)-5-(2,5-Dihydroxybenzylideneamino)-6-hydroxybenzo[d][1,3]oxathiol-2-one] | 261 to 263 °C | > 10 | > 10 | > 200 | 5.6 | – | –
O=c1oc2cc(O)c(/N=C/c3cc([N+](=O)[O-])ccc3O)cc2s1 [Compound 4o, (E)-6-Hydroxy-5-(2-hydroxy-5-nitrobenzylideneamino)benzo[d][1,3]oxathiol-2-one] | 293 to 294 °C | > 10 | > 10 | > 200 | < 5 | – | 2.8
O=c1oc2cc(O)c(/N=C/c3cc(Br)ccc3O)cc2s1 [Compound 4p, (E)-5-(5-Bromo-2-hydroxybenzylideneamino)-6-hydroxybenzo[d][1,3]oxathiol-2-one] | 250 to 252 °C | > 10 | > 10 | > 200 | > 10 | – | –
O=c1oc2cc(O)c(/N=C/c3ccc(-c4ccccn4)cc3)cc2s1 [Compound 4q, (E)-6-Hydroxy-5-(4-(pyridin-2-yl)benzylideneamino)benzo[d][1,3]oxathiol-2-one] | 201 to 203 °C | > 10 | > 10 | > 200 | > 10 | – | –
O=c1oc2cc(O)c(/N=C/c3ccc4c(c3)OCO4)cc2s1 [Compound 4r, (E)-5-(Benzo[d][1,3]dioxol-5-ylmethyleneamino)-6-hydroxybenzo[d][1,3]oxathiol-2-one] | 232 to 233 °C | > 10 | > 10 | > 200 | > 10 | – | –
COc1cccc2c1C(=O)c1c(O)c3c(c(O)c1C2=O)C[C@@](O)(C(=O)CO)C[C@@H]3O[C@H]1C[C@H](N)[C@H](O)[C@H](C)O1 [Dox, Doxorubicin, reference compound] | – | 0.274 | 0.1 | > 200 | 0.045 | – | –

More lines, main results first:

melting point | Structure (SMILES) | IC50 (ACP-03; Homo sapiens, 72 h) [µM] | IC50 (HCT-116) [µM] | EC50 at 30 min [1] [µg/mL] | IC50 (SKMEL-19; Homo sapiens, SK-MEL19, 72 h) [µM] | IC50 (ACP-03) [µM] | IC50 (SKMEL-19) [µM]
261 to 263 °C | N#Cc1ccc(/C=N/c2cc3sc(=O)oc3cc2O)cc1 [Compound 4a, (E)-4-((6-Hydroxy-2-oxobenzo[d][1,3]oxathiol-5-ylimino)methyl)benzonitrile] | > 10 | > 10 | > 200 | > 10 | – | –
220 to 222 °C | O=c1oc2cc(O)c(/N=C/c3cccc([N+](=O)[O-])c3)cc2s1 [Compound 4c, (E)-6-Hydroxy-5-(3-nitrobenzylideneamino)benzo[d][1,3]oxathiol-2-one] | > 10 | > 10 | > 200 | > 10 | – | –
211 to 213 °C | O=c1oc2cc(O)c(/N=C/c3ccc(Br)cc3)cc2s1 [Compound 4d, (E)-5-(4-Bromobenzylideneamino)-6-hydroxybenzo[d][1,3]oxathiol-2-one] | > 10 | > 10 | > 200 | > 10 | – | –
179 to 180 °C | O=c1oc2cc(O)c(/N=C/c3cccc(Br)c3)cc2s1 [Compound 4e, (E)-5-(3-Bromobenzylideneamino)-6-hydroxybenzo[d][1,3]oxathiol-2-one] | > 10 | > 10 | > 200 | > 10 | – | –
210 to 212 °C | O=c1oc2cc(O)c(/N=C/c3ccc(Cl)cc3)cc2s1 [Compound 4f, (E)-5-(4-Chlorobenzylideneamino)-6-hydroxybenzo[d][1,3]oxathiol-2-one] | > 10 | > 10 | > 200 | > 10 | – | –
232 to 233 °C | O=c1oc2cc(O)c(/N=C/c3ccccc3)cc2s1 [Compound 4h, (E)-5-(Benzylideneamino)-6-hydroxybenzo[d][1,3]oxathiol-2-one] | > 10 | > 10 | > 200 | > 10 | – | –
177 to 178 °C | COc1ccc(/C=N/c2cc3sc(=O)oc3cc2O)cc1 [Compound 4j, (E)-6-Hydroxy-5-(4-methoxybenzylideneamino)benzo[d][1,3]oxathiol-2-one] | > 10 | > 10 | > 200 | > 10 | – | –
252 to 253 °C | O=c1oc2cc(O)c(/N=C/c3ccccc3O)cc2s1 [Compound 4k, (E)-6-Hydroxy-5-(2-hydroxybenzylideneamino)benzo[d][1,3]oxathiol-2-one] | > 10 | > 10 | > 200 | > 10 | – | –
